Data set [1] has as its target T1, human dopamine D3 receptors (Homo sapiens, UniProt P35462).
T1 construct: expressed in transfected cells
Put plainly: Receptor binding study, dopamine D3 receptor ([125I]-iodosulpride displacement). The conditions noted are these: membranes from HEK-293 cells, 0.1 nM [125I]-iodosulpride. Here is the method: (§1) The substance to be tested was dissolved either in methanol/Chremophor® (BASF-AG) or in dimethyl sulfoxide and then diluted with water to the desired concentration.
The mixture (0.250 ml) is composed of membranes from ˜10^6 HEK-293 cells with stably expressed human dopamine D3 receptors, 0.1 nM [^125I]-iodosulpride and incubation buffer (total binding) or with addition of test substance (inhibition plot) or 1 μM spiperone (nonspecific binding). Triplicate mixtures were carried out.
The incubation buffer contained 50 mM Tris, 120 mM NaCl, 5 mM KCl, 2 mM CaCl2, 2 mM MgCl2 and 0.1% bovine serum albumin, 10 μM quinolone, 0.1% ascorbic acid (prepared fresh each day). The buffer was adjusted to pH 7.4 with HCl.
(§2) After incubation at 25° C. for 60 minutes, the mixtures were filtered under vacuum through Wathman GF/B glass fiber filters using a cell harvester. The filters were transferred by a filter transfer system into scintillation vials. After addition of 4 ml of Ultima Gold® (Packard), the samples were shaken for one hour and then the radioactivity was calculated in a beta counter (Packard, Tricarb 2000 or 2200CA). The cp values were converted into dpm by means of a standard quench series with the aid of the instrument's own program.
(§3) Evaluation of the inhibition plots took place by iterative nonlinear regression analysis using the statistical analysis system (SAS) similar to the “LIGAND” program described by Munson and Rodbard.

Data set [2] has as its target T2, human dopamine D2 (L) receptors (long isoform) (Homo sapiens, UniProt P14416).
T2 construct: expressed in transfected cells
Put plainly: Receptor binding study, dopamine D2(L) receptor ([125I]-iodospiperone displacement). Particulars: selectivity ratio D2(L) versus D3 binding. Here is the method: as §1
The mixture (1 ml) was composed of membranes from ˜10^6 HEK-293 cells with stably expressed human dopamine D2 (L) receptors (long isoform) and 0.01 nM [^125I]-iodospiperone and incubation buffer (total binding) or with addition of test substance (inhibition plot) or 1 μM haloperidol (nonspecific binding). Triplicate mixtures were carried out.
The incubation buffer contained 50 mM Tris, 120 mM NaCl, 5 mM KCl, 2 mM CaCl2, 2 mM MgCl2 and 0.1% bovine serum albumin. The buffer was adjusted to pH 7.4 with HCl.
as §2, §3

The nature of data set [3]: Investigation of the cerebral availability and the oral bioavailability. It is filed as in vivo, male Wistar rats. Particulars: rat; for bioavailability / Kp: male, Wistar; for bioavailability: plasma, AUCoral/AUCiv, oral 10 mg/kg, intravenous 2 mg/kg, read-out: F (bioavailability); for Kp: brain/plasma, oral, 10 mg/kg of body weight, read-out: AUCbrain/AUCplasma; for cmax (brain) / AUCbrain: oral (gavage) 10 mg/kg, brain tissue; for AUCbrain: trapezoidal method. As to the method:
The test substances were administered to male Wistar rats in parallel experiments in each case intravenously (tail vein, 2 mg/kg of body weight) and orally (gavage, 10 mg/kg of body weight). The test compound was dissolved in water with up to 4% by volume of DMSO and/or ethanol for intravenous administration and suspended in 4% by weight aqueous hydroxypropyl-cellulose solution for oral administration. After various times (intravenous: 5 min, 15 min, 30 min, 2 h, 8 h and 24 h; oral: 15 min, 30 min, 2 h, 8 h and 24 h) after the administration, a blood sample or brain tissue were taken from 2 rats in each case. The concentration of the test compound in the blood plasma and in the brain tissue (plasma and brain) was determined in a conventional way by coupled liquid chromatography/mass spectroscopy or by HPLC. The area under the concentration-time plot for brain (AUCbrain) and for plasma (AUCiV, AUCoral) were by means of the trapezoidal method from the results obtained [((tn−tn-1)×(cn+cn-1)/2) calculated, in which tn is the time of determination and tn-1 is the preceding time of determination, and cn and cn-1 are respectively the concentrations at time tn and tn-1]. The maximum concentration of the active ingredients in brain tissue cmax brain, the value of AUCbrain, and the AUCbrain/AUCplasma ratio is a measure of the cerebral availability of the active substance. In addition, the bioavailability F of the active ingredient was calculated in a manner known per se from the data (AUCoral/AUCiv in %).

Where a name gives a salt, the structure may show the parent alone.

T2 sequence (P14416 whole entry, canonical isoform): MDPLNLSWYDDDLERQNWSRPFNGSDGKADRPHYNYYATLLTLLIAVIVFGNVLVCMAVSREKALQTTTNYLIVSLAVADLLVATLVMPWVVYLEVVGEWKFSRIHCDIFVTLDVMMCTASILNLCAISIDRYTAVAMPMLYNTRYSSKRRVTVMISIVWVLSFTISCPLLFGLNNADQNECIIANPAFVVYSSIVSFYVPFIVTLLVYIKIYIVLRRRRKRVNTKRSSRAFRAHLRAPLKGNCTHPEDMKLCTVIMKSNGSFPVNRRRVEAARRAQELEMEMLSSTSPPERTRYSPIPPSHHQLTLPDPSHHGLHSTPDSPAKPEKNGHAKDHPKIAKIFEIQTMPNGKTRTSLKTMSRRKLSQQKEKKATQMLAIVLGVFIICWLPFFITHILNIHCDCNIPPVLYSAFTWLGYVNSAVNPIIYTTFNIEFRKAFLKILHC
T1 sequence (P35462 whole entry): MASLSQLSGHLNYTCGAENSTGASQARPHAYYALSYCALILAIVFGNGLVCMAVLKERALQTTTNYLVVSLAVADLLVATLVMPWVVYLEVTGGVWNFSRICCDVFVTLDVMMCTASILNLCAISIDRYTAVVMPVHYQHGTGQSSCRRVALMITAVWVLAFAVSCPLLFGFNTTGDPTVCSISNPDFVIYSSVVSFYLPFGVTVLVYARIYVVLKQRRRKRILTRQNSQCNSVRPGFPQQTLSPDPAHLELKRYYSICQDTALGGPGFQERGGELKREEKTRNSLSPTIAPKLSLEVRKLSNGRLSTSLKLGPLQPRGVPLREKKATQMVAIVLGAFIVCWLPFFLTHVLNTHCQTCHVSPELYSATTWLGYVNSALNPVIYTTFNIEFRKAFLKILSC

The Ki is a dissociation constant, usually derived from enzyme kinetics or from competition with a known ligand. A lower Ki goes with tighter binding. In turn, `CCC(=O)c1ccc2c(c1)CN(CCCSc1nnc(-c3cc4ccccc4s3)n1C)CC2` [Ia′-57, 1-[2-(3-{[5-(1-Benzothien-2-yl)-4-methyl-4H-1,2,4-triazol-3-yl]thio}propyl)-1,2,3,4-tetrahydroisoquinolin-7-yl]propan-1-one] yielded an inhibitory constant (Ki) in data set [1] of 2.6 nM. The “Ki (D2)/Ki (D3)” value in data set [2] is 59.

In data set [1], `Cn1c(SCCCN2CCc3ccc(C(=O)c4cccc(F)c4)cc3C2)nnc1-c1cccnc1` [Ia′-63, 7-(3-Fluorobenzoyl)-2-{3-[(4-methyl-5-pyridin-3-yl-4H-1,2,4-triazol-3-yl)thio]propyl}-1,2,3,4-tetrahydroisoquinolines] showed a Ki of 40.3 nM. Further, the “Ki (D2)/Ki (D3)” value in data set [2] came to 38.

Take `CCC(=O)c1ccc2c(c1)CN(CCCSc1nnc(-c3ccccc3)n1C)C2.Cl` [Ib′-25, 1-(2-{3-[(4-Methyl-5-phenyl-4H-1,2,4-triazol-3-yl)thio]propyl}-2,3-dihydro-1H-isoindol-5-yl)propan-1-one hydrochloride]: the Ki in data set [1] is 21.4 nM. Besides, the “Ki (D2)/Ki (D3)” value in data set [2] is 126.

As to `Cn1cccc1-c1nnc(SCCCN2CCc3ccc(C(=O)c4cccc(F)c4)cc3C2)n1C` [Ia′-60, 7-(3-Fluorobenzoyl)-2-(3-{[4-methyl-5-(1-methyl-1H-pyrrol-2-yl)-4H-1,2,4-triazol-3-yl]thio}-propyl)-1,2,3,4-tetrahydroisoquinoline], in data set [1], the Ki is 30.3 nM. Further, the “Ki (D2)/Ki (D3)” value in data set [2] amounted to 37.

As a reminder, the melting point is the temperature of the solid-liquid transition. As to `Cn1c(SCCCN2CCc3ccc(C(=O)c4cccc(F)c4)cc3C2)nnc1-c1ccccc1` (as salt: hydrochloride) [Ia′-68, 7-(3-Fluorobenzoyl)-2-{3-[(4-methyl-5-phenyl-4H-1,2,4-triazol-3-yl)thio]propyl}-1,2,3,4-tetrahydroisoquinolines], the melting point was determined as 147 °C.

On to `Cn1c(SCCCN2CCc3ccc(C(=O)c4ccccc4)cc3C2)nnc1-c1ccncc1` [Ia′-1, 7-Benzoyl-2-{3-[(4-methyl-5-pyridin-4-yl-4H-1,2,4-triazol-3-yl)thio]propyl}-1,2,3,4-tetrahydroisoquinoline], for which the inhibition constant Ki in data set [1] amounted to 11.4 nM. Moreover, in data set [2], the “Ki (D2)/Ki (D3)” value amounted to 133.

`CCC(=O)c1ccc2c(c1)CN(CCCSc1nnc(-c3ccc[nH]3)n1C)C2.Cl` [Ib′-65, 1-[2-(3-{[4-Methyl-5-(1H-pyrrol-2-yl)-4H-1,2,4-triazol-3-yl]thio}propyl)-2,3-dihydro-1H-isoindol-5-yl]propan-1-one hydrochloride] returned a Ki in data set [1] of 40 nM. In data set [2], the “Ki (D2)/Ki (D3)” value was found to be 49.

`Cn1c(SCCCN2CCc3ccc(C(=O)c4ccccc4)cc3C2)nnc1-c1ccsc1` [Ia′-18, 7-Benzoyl-2-{3-[(4-methyl-5-thien-3-yl-4H-1,2,4-triazol-3-yl)thio]propyl}-1,2,3,4-tetrahydroisoquinoline]: in data set [1], the inhibitory constant (Ki) was 22.4 nM. Moreover, the “Ki (D2)/Ki (D3)” value in data set [2] was 48.

`Cn1c(SCCCN2CCc3ccc(C(=O)c4ccccc4)cc3C2)nnc1-c1ccsc1` (as salt: hydrochloride) [Ia′-18, 7-Benzoyl-2-{3-[(4-methyl-5-thien-3-yl-4H-1,2,4-triazol-3-yl)thio]propyl}-1,2,3,4-tetrahydroisoquinoline]: the melting point was found to be 140 °C.

With `Cn1c(SCCCN2CCc3ccc(C(=O)c4ccccc4)cc3C2)nnc1-c1ccco1` [Ia′-3, 7-Benzoyl-2-(3-{[5-(2-furyl)-4-methyl-4H-1,2,4-triazol-3-yl]thio}propyl)-1,2,3,4-tetrahydroisoquinoline], the affinity in data set [1] corresponds to a Ki of 19.3 nM. The “Ki (D2)/Ki (D3)” value in data set [2] was determined as 40.

In data set [1], `Cn1c(SCCCN2CCc3ccc(C(=O)c4cccc(F)c4)cc3C2)nnc1-c1ccccc1` [Ia′-68, 7-(3-Fluorobenzoyl)-2-{3-[(4-methyl-5-phenyl-4H-1,2,4-triazol-3-yl)thio]propyl}-1,2,3,4-tetrahydroisoquinolines] had a Ki of 14.9 nM. Further, the “Ki (D2)/Ki (D3)” value in data set [2] was 56.

The compound `CC(=O)c1ccc2c(c1)CN(CCCSc1nnc(-c3cccnc3)n1C)CC2` [Ia′-39, 7-Acetyl-2-{3-[(4-methyl-5-pyridin-3-yl-4H-1,2,4-triazol-3-yl)thio]propyl}-1,2,3,4-tetrahydroisoquinolines] showed a Ki in data set [1] of 18.8 nM. For the same compound, the “Ki (D2)/Ki (D3)” value in data set [2] is 37.

Turning to `CC(=O)c1ccc2c(c1)CN(CCCSc1nnc(-c3cccn3C)n1C)CC2` [Ia′-4, 7-Acetyl-2-(3-{[4-methyl-5-(1-methyl-1H-pyrrol-2-yl)-4H-1,2,4-triazol-3-yl]thio}propyl)-1,2,3,4-tetrahydroisoquinoline], affinity in data set [1] was put at a Ki of 4.5 nM. Also, in data set [2], the “Ki (D2)/Ki (D3)” value is recorded as 80.

For `CCC(=O)c1ccc2c(c1)CN(CCCSc1nnc(-c3ccccc3)n1C)CC2` [Ia′-25, 2-{3-[(4-methyl-5-phenyl-4H-1,2,4-triazol-3-yl)thio]propyl}-7-propionyl-1,2,3,4-tetrahydroisoquinoline], the inhibitory constant (Ki) in data set [1] came to 4.4 nM. In data set [2], the “Ki (D2)/Ki (D3)” value is recorded as 90.

As for `Cn1c(SCCCN2CCc3ccc(C(=O)c4ccccc4)cc3C2)nnc1-c1ccccc1` [Ia′-19, 7-Benzoyl-2-{3-[(4-methyl-5-phenyl-4H-1,2,4-triazol-3-yl)thio]propyl}-1,2,3,4-tetrahydroisoquinolines], in data set [1], the inhibition constant Ki was 8.6 nM. In data set [2], the “Ki (D2)/Ki (D3)” value was 149.

In data set [1], `Cn1c(SCCCN2CCc3ccc(C(=O)c4cccc(F)c4)cc3C2)nnc1-c1cnccn1` [Ia′-58, 7-(3-Fluorobenzoyl)-2-{3-[(4-methyl-5-pyrazin-2-yl-4H-1,2,4-triazol-3-yl)thio]propyl}-1,2,3,4-tetrahydroisoquinoline] registered a Ki of 25.5 nM. In addition, the “Ki (D2)/Ki (D3)” value in data set [2] came out at 39.

Compound `CCC(=O)c1ccc2c(c1)CN(CCCSc1nnc(-c3cccn3C)n1C)CC2` (as salt: hydrochloride) [Ia′-15, 2-(3-{[4-Methyl-5-(1-methyl-1H-pyrrol-2-yl)-4H-1,2,4-triazol-3-yl]thio}propyl)-7-propionyl-1,2,3,4-tetrahydroisoquinoline] registered a melting point of 181 to 184 °C.

For orientation: bioavailability means dose-corrected exposure relative to a reference, in per cent. Turning to `Cn1cccc1-c1nnc(SCCCN2CCc3ccc(C(=O)c4ccccc4)cc3C2)n1C` [Ia′-12, 7-Benzoyl-2-(3-{[4-methyl-5-(1-methyl-1H-pyrrol-2-yl)-4H-1,2,4-triazol-3-yl]thio}propyl)-1,2,3,4-tetrahydroisoquinoline], in data set [3], the bioavailability turned out to be 10%, the Kp was determined as 0.2, the “cmax (brain)” value was determined as 130 ng/g and the AUCbrain amounted to 306 ng·h/g. Further, the inhibitory constant (Ki) in data set [1] was found to be 10.7 nM. Moreover, the “Ki (D2)/Ki (D3)” value in data set [2] is 90.

In the case of `CCC(=O)c1ccc2c(c1)CN(CCCSc1nnc(-c3cccn3C)n1C)CC2` [Ia′-15, 2-(3-{[4-Methyl-5-(1-methyl-1H-pyrrol-2-yl)-4H-1,2,4-triazol-3-yl]thio}propyl)-7-propionyl-1,2,3,4-tetrahydroisoquinoline], in data set [3], the bioavailability amounted to 100%, the Kp turned out to be 0.3, the “cmax (brain)” value is 686 ng/g and the AUCbrain is 2903 ng·h/g. In data set [1], this compound gave a Ki of 4.4 nM. Besides, the “Ki (D2)/Ki (D3)” value in data set [2] amounted to 103.

Source of the values: patent US7465744B2, “Triazole compounds and the therapeutic use thereof” (Abbott GmbH & Co. KG, priority 2003, dated 2008).
